# Experimental data from EP0121764B1, “Polypeptides” (F. HOFFMANN-LA ROCHE AG, priority 1983, dated 1990).
# No end group written: not given here.
# Experiments:
# [1] = synthetically prepared peptides; factor relative to GRF(1-40)-OH; cited from earlier work
# [2] = test system: in Gewebekultur gezüchtete Zellen von Rattenhypophysen; test: Growth hormone release from cultured rat pituitary cells (RIA for rat growth hormone); assay type: cell-based, Sprague-Dawley-Ratten
# Source text: Die biologische Aktivität von (leu^27)-GRF(1―44)-OH wurde mit derjenigen von natürlichem GRF(1―44)-NH2 verglichen, das aus einem Pankreastumor eines an Akromegalie leidenden Patienten isoliert wurde (Salk Institute Standard hp-GRF-NH2(NL-A-10)). Der Test auf biologische Aktivität, bei dem die Fähigkeit gemessen wird, in Gewebekultur gezüchtete Zellen von Rattenhypophysen zur Wachstumshormonproduktion zu stimulieren, wurde in der folgenden Weise durchgeführt:
# Die Hypophysen-Vorderlappen von 30-40 männlichen Sprague-Dawley-Ratten (175 g) wurden dreimal mit sterilem Hepes-Puffer (pH 7,5) gewaschen und bei 37°C in 20-30 ml Hepes-Puffer (0,025 m, pH 7,35), enthaltend Kollagenase (4 mg/ml) und Dispase (2 mg/ml), dispergiert. Nach 100-110 minütiger Behandlung mit einem Vortex-Mixer und Behandlung mit Pasteur-Pipette, wurden die dispergierten Zellen durch Zentrifugieren (4 Minuten, 150xg) abgetrennt und während 10 Minuten in Hepes-Puffer, enthaltend 8 pg/ml Neuraminidase und 200 pg/ml Ethylendiamintetraessigsäure-dinatriumsalz, pH 7,35, resuspendiert. Die Zellen wurden zweimal mit folgendem Medium gewaschen: F-12/DMEM/BGjb (6:3:1) (Gibco: 430―1700/430―1600/320―2591) mit 2 g/I Rinderserumalbumin (BSA), 2x38 g/I Hepes und 50 mg/I Gentamycin und auf Mikrotiterplatten aufgebracht (1,5x10^5 Zellen/ml). Dem Medium in den einzelnen Löchern wurde entweder (leu^27)-GRF(1―44)-OH oder natürliches GRF(1-44)-NH2 in solchen Mengen zugesetzt, dass sich folgende Konzentrationen ergaben: 3.1, 6.3, 12.5, 25.0, 50.0, 100.0 und 200.0 fMol/ml. Die Kontrollen wurden nicht supplementiert. Das Aufbringen mit diesem Medium erfolgte unter Zusatz von 2% fötalem Kälberserum, um eine schnelle Fixierung der Zellen zu erreichen. Am vierten Tag wurden die Zellen zweimal mit dem oben definierten Medium (ohne Kälberserum) gewaschen. Schliesslich wurden jedem Loch 900 µl des Mediums sowie 100 µl Medium mit der Testsubstanz zugesetzt (jeweils dreifach). Nach dreistündiger Inkubation wurde der Überstand gesammelt und soweit verdünnt, dass Radioimmunoassays (RIAs) auf Ratten-Wachstumshormon durchgeführt werden konnten. […]
Substance,Aktivitäten ähnlich wie GRF(1-40)-OH (innerhalb eines Faktors) [1],"relative Aktivität gegenüber dem Standard des Salk Instituts ([2]; computer analysis of the table data, standard hp-GRF-NH2(NL-A-10) = natural GRF(1-44)-NH2, 3.1-200.0 fMol/ml, 3 h incubation)","Faktor, um den die ausgeschüttete Menge an Wachstumshormon grösser ist, bezogen auf (leu^27)-GRF-OH ([2]; in vitro)","Aktivität verglichen mit GRF(1-44)-NH2 ([2]; stimulation of growth hormone production, 3.1-200.0 fMol/ml, 3 h incubation)"
"GRF(1-40)-NH2: synthetic GRF fragment, first 40 amino acids, amidated (Rivier et al.) (YADAIFTNSYRKVLGQLSARKLLQDIMSRQQGESNQERGA-NH2; UniProt P01286 32-71, looked up, fragment)",≤ 2,–,–,–
"GRF(1-39)-NH2: synthetic GRF fragment, first 39 amino acids, amidated (Rivier et al.) (YADAIFTNSYRKVLGQLSARKLLQDIMSRQQGESNQERG-NH2; UniProt P01286 32-70, looked up, fragment)",≤ 2,–,–,–
"GRF(1-29)-NH2: synthetic GRF fragment, first 29 amino acids, amidated (Rivier et al.) (YADAIFTNSYRKVLGQLSARKLLQDIMSR-NH2; UniProt P01286 32-60, looked up, fragment)",≤ 2,–,–,–
"(leu^27)-GRF(1―44)-OH (YADAIFTNSYRKVLGQLSARKLLQDILSRQQGESNQERGARARL-OH; UniProt P01286 32-75, looked up, variant M27L) [(Leu^27)-GRF(1-44)-OH]",–,"1,063",≥ 10,gleich oder leicht höher
"GRF(1-32)-NH2: synthetic GRF fragment, first 32 amino acids, amidated (Rivier et al.) (YADAIFTNSYRKVLGQLSARKLLQDIMSRQQG-NH2; UniProt P01286 32-63, looked up, fragment)",≤ 2,–,–,–
